{"source": "paper PMC6934184", "about": "“Selective DNA-PKcs inhibition extends the therapeutic index of localized radiotherapy and chemotherapy” (The Journal of Clinical Investigation, 2019)", "target": "T1, AMPK (A1/B1/G2) (Homo sapiens, UniProt Q13131)", "T1 construct": "purchased Thermo Fisher Scientific (Life Technologies) SelectScreen", "T1 sequence (Q13131 whole entry)": "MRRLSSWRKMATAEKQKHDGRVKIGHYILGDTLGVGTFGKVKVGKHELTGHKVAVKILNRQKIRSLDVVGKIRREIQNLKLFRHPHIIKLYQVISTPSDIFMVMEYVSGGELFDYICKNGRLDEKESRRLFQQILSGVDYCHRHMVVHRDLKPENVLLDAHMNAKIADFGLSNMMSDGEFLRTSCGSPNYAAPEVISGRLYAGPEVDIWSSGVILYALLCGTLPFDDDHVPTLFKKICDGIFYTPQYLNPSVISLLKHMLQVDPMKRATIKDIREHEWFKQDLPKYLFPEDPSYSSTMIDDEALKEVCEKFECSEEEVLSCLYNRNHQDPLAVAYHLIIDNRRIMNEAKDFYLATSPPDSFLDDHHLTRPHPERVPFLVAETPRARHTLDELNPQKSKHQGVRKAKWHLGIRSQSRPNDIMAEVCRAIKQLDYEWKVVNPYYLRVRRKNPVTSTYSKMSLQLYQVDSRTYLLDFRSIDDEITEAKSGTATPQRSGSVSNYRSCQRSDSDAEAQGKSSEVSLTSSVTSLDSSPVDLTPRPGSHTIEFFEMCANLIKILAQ", "T1 sequence (Q9Y478 whole entry partner)": "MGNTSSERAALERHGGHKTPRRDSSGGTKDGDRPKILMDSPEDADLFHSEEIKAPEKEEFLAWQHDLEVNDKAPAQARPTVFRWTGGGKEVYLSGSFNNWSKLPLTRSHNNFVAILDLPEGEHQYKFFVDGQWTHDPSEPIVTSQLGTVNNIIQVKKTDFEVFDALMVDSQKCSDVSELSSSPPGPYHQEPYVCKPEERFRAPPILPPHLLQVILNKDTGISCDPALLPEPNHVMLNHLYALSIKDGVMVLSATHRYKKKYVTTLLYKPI", "T1 sequence (Q9UGJ0 whole entry partner)": "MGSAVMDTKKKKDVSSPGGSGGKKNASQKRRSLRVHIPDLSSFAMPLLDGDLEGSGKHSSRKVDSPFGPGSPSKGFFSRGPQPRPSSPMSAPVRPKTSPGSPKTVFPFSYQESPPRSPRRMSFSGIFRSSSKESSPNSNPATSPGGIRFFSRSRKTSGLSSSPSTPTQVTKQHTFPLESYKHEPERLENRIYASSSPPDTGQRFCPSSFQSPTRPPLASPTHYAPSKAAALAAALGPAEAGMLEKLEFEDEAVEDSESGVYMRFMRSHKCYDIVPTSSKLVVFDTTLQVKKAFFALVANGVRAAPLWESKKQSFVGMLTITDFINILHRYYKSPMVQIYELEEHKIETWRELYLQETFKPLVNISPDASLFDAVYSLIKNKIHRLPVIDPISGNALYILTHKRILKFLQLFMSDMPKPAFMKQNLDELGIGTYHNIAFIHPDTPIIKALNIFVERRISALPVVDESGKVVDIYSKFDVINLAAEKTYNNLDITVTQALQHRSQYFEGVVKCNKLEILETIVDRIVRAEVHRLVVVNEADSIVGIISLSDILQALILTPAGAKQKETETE", "experiment": "SelectScreen LanthaScreen", "assay_type": "binding", "conditions": "read-out: % displacement", "procedure,_shortened": "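Percent values come from Thermo SelectScreen profiling of NU5455, combining activity and binding assays. CSF1R was run in Z'LYTE format at Km app ATP, and CAMK1 in Adapta format with ATP listed at 10.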", "data": [{"molecule": "CN(C(=O)CN1CCOCC1)c1ccc2sc3c(-c4cccc5c(=O)cc(N6CC7CCC(C6)O7)oc45)cccc3c2c1", "note": "[NU5455]", "values": [{"measurement": "inhibition at 1 µM", "result": 2.4, "unit": "%"}]}]}
